The record followed here is ChEMBL document CHEMBL1125839, “Synthesis and pharmacological evaluation of ether and related analogues of delta 8-, delta 9-, and delta 9,11-tetrahydrocannabinol” (J Med Chem, 1991).

A value given as a limit tells only on which side of the number the result lay.

The subject of experiment [1] is Mus musculus. Kind of experiment: The compound was tested in vivo for ring immobility in mice. The experiment is classed as functional.
For experiment [2], the system named is Mus musculus. Kind of experiment: The compound was tested in vivo for hypothermic activity in mice. It is filed as functional.
Experiment [3] has as its system Mus musculus. Kind of experiment: The compound was tested in vivo for locomotor activity in mice. It is filed as functional.
Experiment [4] deals with Mus musculus. In words: The compound was tested in vivo for tail-flick latency in mice. It is filed as functional. On the technique in general: Hot-plate and tail-flick tests time the reaction to a heat stimulus.
Experiment [5] deals with T1, Cannabinoid receptor (Rattus norvegicus, UniProt Q9QZN9+P20272). In words: The compound was tested in vitro for binding activity against THC cannabinoid receptor site, using 3H-CP-55940 as the radioligand. The experiment is classed as protein assay.
For experiment [6], the target named is T1, Cannabinoid receptor. Kind of experiment: The compound was tested in vitro for binding activity against THC cannabinoid receptor site, using 3H-CP-55940 as the radioligand. It is filed as protein assay.

One may read the ED50 as the midpoint of the dose-response relation. Lower therefore signals an effect at a small dose. The IC50 is the concentration needed to halve the response being measured. Read a low IC50 as inhibition by little substance.

With `C=C1CC[C@@H]2[C@@H](C1)c1c(O)cc(CCCCC)cc1OC2(C)C`, the ED50 worked out at 24 mg/kg in experiment [1], 56 mg/kg in experiment [2] and 15 mg/kg in experiment [3]. The MPE50 in experiment [4] is 5.4 mg/kg.

For the compound `CCCCCc1cc(OCCN2CCOCC2)c2c(c1)OC(C)(C)[C@@H]1CC=C(C)C[C@@H]21`, the IC50 in experiment [5] came to 4.3 µM. The ED50 is 118 mg/kg in experiment [1], more than 100 mg/kg in experiment [2] and more than 100 mg/kg in experiment [3]. Also, the MPE50 in experiment [4] was more than 100 mg/kg.

Take `CCCCCc1cc(OC)c2c(c1)OC(C)(C)[C@@H]1CCC(C)=C[C@@H]21`: in experiment [6], the IC50 is 10 µM. Besides, the values for the ED50 in experiment [1], in experiment [2] and in experiment [3] were 17 mg/kg, 267 mg/kg and more than 100 mg/kg, respectively. This compound displayed an MPE50 in experiment [4] of 116 mg/kg.

For `CCCCCc1cc(OC)c2c(c1)OC(C)(C)[C@@H]1CC=C(C)C[C@@H]21`, the IC50 in experiment [6] came out at 3.2 µM. Further, the ED50 in experiment [1], in experiment [2] and in experiment [3] was more than 100 mg/kg throughout. Moreover, the MPE50 in experiment [4] was determined as 33 mg/kg.

In turn, `C=C1CC[C@@H]2[C@@H](C1)c1c(O)cc(CCC)cc1OC2(C)C` yielded an IC50 in experiment [6] of 1.4 µM. Besides, the ED50 in experiment [1] is more than 30 mg/kg; in experiment [2] it was more than 30 mg/kg; in experiment [3] it was 20 mg/kg. Besides, in experiment [4], the MPE50 amounted to 15 mg/kg.

`C=C1C[C@H]2c3c(O)cc(CCCCC)cc3OC(C)(C)[C@@H]2C[C@H]1O` displayed an IC50 in experiment [6] of 1.2 µM. In addition, the results for the ED50 in experiment [1], in experiment [2] and in experiment [3] were 63 mg/kg, 50 mg/kg and 20 mg/kg, respectively. The compound also had an MPE50 in experiment [4] of 25 mg/kg.

For `CCCCCc1cc(O)c2c(c1)OC(C)(C)[C@@H]1CC=C(C)C[C@@H]21` [DELTA-8-TETRAHYDROCANNABINOL], the ED50 worked out at 5.2 mg/kg in experiment [1] and 1.9 mg/kg in experiment [3]. Further, the MPE50 in experiment [4] was found to be 1.5 mg/kg.

Consider `CCCCCc1cc(O)c2c(c1)OC(C)(C)[C@@H]1CCC(C)=C[C@@H]21` [DRONABINOL], for which the ED50 in experiment [1] was determined as 1.5 mg/kg; in experiment [2], 1.4 mg/kg; in experiment [3], 1 mg/kg. Further, in experiment [4], the MPE50 worked out at 1.4 mg/kg.
